According to patent US12605423B2, “Peptide inhibitors targeting methyltransfer mechanism of SARS-CoV-2” (United Arab Emirates University, priority 2021, dated 2026):
Entries after “also recorded” stand apart in the source; their conditions may differ.

Key:
IL-6 = type: cell-based; conditions: NCIH1792 (H1792) human lung cells, 10 μM peptide, versus PBS control

For `CSCC[C@H](NC(=O)[C@H](Cc1ccccc1)NC(=O)CNC(=O)[C@H](CO)NC(=O)CNC(=O)[C@H](CCCNC(=N)N)NC(=O)[C@H](CCCNC(=N)N)NC(=O)[C@H](CCCNC(=N)N)NC(=O)[C@H](CCC(N)=O)NC(=O)[C@H](CCCNC(=N)N)NC(=O)[C@H](CCCNC(=N)N)NC(=O)[C@H](CCCCN)NC(=O)[C@H](CCCCN)NC(=O)[C@H](CCCNC(=N)N)NC(=O)CNC(=O)[C@H](Cc1ccc(O)cc1)NC(C)=O)C(=O)N[C@@H](CC(=O)O)C(=O)N[C@@H](CC(C)C)C(=O)N[C@@H](CCCCN)C(=O)NCC(=O)N[C@@H](CCCCN)C(=O)N[C@@H](Cc1ccc(O)cc1)C(N)=O` [Peptide P3, FMDLKGKY], the 90% Effective Concentration (EC90) (SARS-CoV-2) was 3.3 µM, the EC90 (SARS-CoV-2) was 3.3 µM and the “IL-6 induction” value (IL-6) was “not P2 nor P3; also recorded: does not stimulate IL-6”.
